Measured values from US11326126B2, “High performing, high impact bloom accord” (International Flavors & Fragrances Inc., priority 2016, dated 2022).

Assays:
Test in all cases: Antibacterial activity
Assay type in all cases: cell-based
e. coli = settings: against e. coli
Excerpt: (§1) The fragrance accords can contain antibacterial ingredients described above. See U.S. Pat. No. 6,495,512 for a list of suitable antibacterial ingredients.

s. aureos = settings: against s. aureos
Excerpt: as §1

e. hirae = settings: against e. hirae
Excerpt: as §1

Measured: antibacterial activity

COc1ccc(C)cc1 [1-methoxy-4-methylbenzene]
high antibacterial activity: e. coli | s. aureos | e. hirae

C=CC(C)(O)CCC=C(C)C (stereo not drawn) [3,7-dimethylocta-1,6-dien-3-ol]
high antibacterial activity: e. coli | s. aureos | e. hirae
